Experimental data taken from patent publication US9365522B2, “Pyrazole amide derivative” (AMGEN INC., priority 2015, dated 2016).

Target: T1, human RORγ-LBD (Homo sapiens, UniProt P51449)
T1 construct: made in house; host or cells: E. coli (BL-21)
T1 sequence (P51449 262-518): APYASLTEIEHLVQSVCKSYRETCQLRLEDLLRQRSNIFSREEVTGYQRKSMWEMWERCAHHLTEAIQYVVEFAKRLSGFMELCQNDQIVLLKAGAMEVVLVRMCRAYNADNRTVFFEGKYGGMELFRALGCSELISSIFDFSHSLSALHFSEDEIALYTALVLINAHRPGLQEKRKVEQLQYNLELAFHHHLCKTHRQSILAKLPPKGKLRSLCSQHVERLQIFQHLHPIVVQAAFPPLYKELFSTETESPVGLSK
Experiment: ROR gamma coactivator peptide recruitment Alphascreen assay (RORγ-LBD binding to GRIP1 coactivator peptide)
Assay type: biochemical
Conditions: 5 nM human RORγ-LBD, 30 nM 7-β-hydroxycholesterol, 50 nM biotinylated GRIP1 coactivator peptide, overnight incubation at room temperature; read-out: result (pIC50, RORγ coactivator peptide recruitment Alphascreen assay) (converted)
Method in brief: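 Alphascreen proximity read-out after overnight room-temperature incubation, yielding pIC50 from 1-in-2 compound series (2.5% DMSO final). Mixture: 50 nM biotin-GRIP1 peptide, 30 nM 7-β-hydroxycholesterol agonist, 5 nM recombinant 6×His:Flag human RORγ-LBD (aa 262-518), 50 mM HEPES pH 7.4.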

Row | IC50 | Compound
1 | 1.55 nM | C[C@@H]1C[C@@H](n2ncc(C(=O)N(CC(=O)c3c(Cl)cccc3Cl)CC3(C)CCC3)c2C(F)(F)F)CC[C@@H]1C(=O)O [Example 781, (1S,2R,4S)-4-(4-((2-(2,6-dichlorophenyl)-2-oxoethyl)((1-methylcyclobutyl)methyl)carbamoyl)-5-(trifluoromethyl)-1H-pyrazol-1-yl)-2-methylcyclohexanecarboxylic acid]
2 | 13.5 nM | C[C@H]1C[C@H](n2ncc(C(=O)N(CC(=O)c3c(Cl)cncc3Cl)CC(C)(C)C)c2C(F)(F)F)CC[C@H]1C(=O)O [Example 738]
3 | 74.1 nM | CC(C)(C)CN(CC(=O)c1c(Cl)cncc1Cl)C(=O)c1cnn([C@H]2CC[C@@H](CC(=O)O)CC2)c1C(F)(F)F [Example 720, (cis-4-(4-((2-(3,5-dichloro-4-pyridinyl)-2-oxoethyl)(2,2-dimethylpropyl)carbamoyl)-5-(trifluoromethyl)-1H-pyrazol-1-yl)cyclohexyl)acetic acid]
4 | 17.4 nM | C[C@@H]1C[C@@H](n2ncc(C(=O)N(CC(=O)c3c(Cl)cncc3Cl)CC3(C)CC3)c2C(F)(F)F)CC[C@@H]1C(=O)O [Example 788, (1S,2R,4S)-4-(4-((2-(3,5-dichloro-4-pyridinyl)-2-oxoethyl)((1-methylcyclopropyl)methyl)carbamoyl)-5-(trifluoromethyl)-1H-pyrazol-1-yl)-2-methylcyclohexanecarboxylic acid]
5 | 45.7 nM | CC1(CN(CC(=O)c2c(Cl)cncc2Cl)C(=O)c2cnn([C@H]3CC[C@H](C(=O)O)C(C)(C)C3)c2C(F)(F)F)CCC1 (single isomer, unassigned) [Example 807]
6 | 2.75 nM | C[C@]1(C(=O)O)CC[C@H](n2ncc(C(=O)N(CC(=O)c3c(Cl)cncc3Cl)CC3CCCCC3)c2C(F)(F)F)CC1 [Example 735]
7 | 9.77 nM | CC1(C)CC[C@H](CN(CC(=O)c2c(Cl)cccc2Cl)C(=O)c2cnn([C@H]3CC[C@](C)(C(=O)O)CC3)c2C(F)(F)F)O1 [Example 821, trans-4-(4-((2-(2,6-dichlorophenyl)-2-oxoethyl)(((2R)-5,5-dimethyltetrahydro-2-furanyl)methyl)carbamoyl)-5-(trifluoromethyl)-1H-pyrazol-1-yl)-1-methylcyclohexanecarboxylic acid]

The next lines start with the compound.

Row | Compound | IC50
8 | O=C(O)C1CCC(n2ncc(C(=O)N(CCc3c(Cl)cncc3Cl)CC3(F)CCCC3)c2C(F)(F)F)CC1 (stereo in doubt) [Example 609, cis-4-(4-((2-(3,5-dichloro-4-pyridinyl)ethyl)((1-fluorocyclopentyl)methyl)carbamoyl)-5-(trifluoromethyl)-1H-pyrazol-1-yl)cyclohexanecarboxylic acid] | 95.5 nM
9 | C=CCC1(CC=C)C[C@H](Cc2c(Cl)cncc2Cl)N(C(=O)c2cnn([C@H]3CC[C@](C)(C(=O)O)CC3)c2C(F)(F)F)C1 [Example 618, trans-4-(4-(((2R)-2-((3,5-dichloro-4-pyridinyl)methyl)-4,4-di(2-propen-1-yl)-1-pyrrolidinyl)carbonyl)-5-(trifluoromethyl)-1H-pyrazol-1-yl)-1-methylcyclohexanecarboxylic acid] | 10.5 nM
10 | C[C@]1(C(=O)O)CC[C@H](n2ncc(C(=O)N(CC(=O)c3c(Cl)cccc3Cl)[C@@H]3CCC34CCCC4)c2C(F)(F)F)CC1 [Example 650, trans-4-(4-((2-(2,6-dichlorophenyl)-2-oxoethyl)((1R)-spiro[3.4]oct-1-yl)carbamoyl)-5-(trifluoromethyl)-1H-pyrazol-1-yl)-1-methylcyclohexanecarboxylic acid] | 7.94 nM
11 | O=C(CN(Cc1ccc(Cl)cc1)C(=O)c1cnn([C@H]2CC[C@H](C(=O)O)CC2)c1C(F)(F)F)c1c(Cl)ccc(F)c1Cl [Example 541, trans-4-(4-((4-chlorobenzyl)(2-(2,6-dichloro-3-fluorophenyl)-2-oxoethyl)carbamoyl)-5-(trifluoromethyl)-1H-pyrazol-1-yl)cyclohexanecarboxylic acid] | 3.16 nM
12 | CC(C)(C#N)CCN(CC(=O)c1c(Cl)cccc1Cl)C(=O)c1cnn([C@H]2CC[C@](C)(C(=O)O)CC2)c1C(F)(F)F [Example 622, trans-4-(4-((3-cyano-3-methylbutyl)(2-(2,6-dichlorophenyl)-2-oxoethyl)carbamoyl)-5-(trifluoromethyl)-1H-pyrazol-1-yl)-1-methylcyclohexanecarboxylic acid] | 229 nM
13 | COc1cc(Cl)c(C(=O)CN(CC2(F)CCCC2)C(=O)c2cnn([C@H]3CC[C@](C)(C(=O)O)CC3)c2C(F)(F)F)c(Cl)c1 [Example 584, trans-4-(4-((2-(2,6-dichloro-4-methoxyphenyl)-2-oxoethyl)((1-fluorocyclopentyl)methyl)carbamoyl)-5-(trifluoromethyl)-1H-pyrazol-1-yl)-1-methylcyclohexanecarboxylic acid] | 5.75 nM
14 | Cc1cc(Cl)c(C(=O)CN(CC(C)(C)C)C(=O)c2cnn([C@H]3CC[C@](C)(C(=O)O)CC3)c2C(F)(F)F)c(Cl)n1 [Example 687, trans-4-(4-((2-(2,4-dichloro-6-methyl-3-pyridinyl)-2-oxoethyl)(2,2-dimethylpropyl)carbamoyl)-5-(trifluoromethyl)-1H-pyrazol-1-yl)-1-methylcyclohexanecarboxylic acid] | 14.8 nM
15 | CC(C)(CN(CC(=O)c1c(Cl)cncc1Cl)C(=O)c1cnn([C@H]2CC[C@](C)(C(=O)O)CC2)c1C(F)(F)F)C(F)(F)F [Example 692, trans-4-(4-((2-(3,5-dichloro-4-pyridinyl)-2-oxoethyl)(3,3,3-trifluoro-2,2-dimethylpropyl)carbamoyl)-5-(trifluoromethyl)-1H-pyrazol-1-yl)-1-methylcyclohexanecarboxylic acid] | 3.24 nM
16 | O=C(c1cnn([C@H]2CC[C@H](C(=O)O)CC2)c1C(F)(F)F)N(CCc1ccc2cc[nH]c2c1)Cc1ccc(Cl)cc1 [Example 503, trans-4-(4-((4-chlorobenzyl)(2-(1H-indol-6-yl)ethyl)carbamoyl)-5-(trifluoromethyl)-1H-pyrazol-1-yl)cyclohexanecarboxylic acid] | 355 nM
17 | COc1cc(Cl)c(C(=O)CN(C(=O)c2cnn([C@H]3CC[C@](C)(C(=O)O)CC3)c2C(F)(F)F)C2CCC(C)(C)CC2)c(Cl)c1 [Example 579, trans-4-(4-((2-(2,6-dichloro-4-methoxyphenyl)-2-oxoethyl)(4,4-dimethylcyclohexyl)carbamoyl)-5-(trifluoromethyl)-1H-pyrazol-1-yl)-1-methylcyclohexanecarboxylic acid] | 4.27 nM
18 | CC(C)(C)CN(CCc1c(Cl)cccc1Cl)C(=O)c1cnn([C@H]2CC[C@H](C(=O)O)CC2)c1C(F)(F)F [Example 523, trans-4-(4-((2-(2,6-dichlorophenyl)ethyl)(2,2-dimethylpropyl)carbamoyl)-5-(trifluoromethyl)-1H-pyrazol-1-yl)cyclohexanecarboxylic acid] | 8.71 nM
19 | Cc1cc(Cl)c(C(=O)CN(CC2CCCCC2)C(=O)c2cnn([C@H]3CC[C@H](C(=O)O)CC3)c2C(F)(F)F)c(Cl)c1 [Example 537, trans-4-(4-((cyclohexylmethyl)(2-(2,6-dichloro-4-methylphenyl)-2-oxoethyl)carbamoyl)-5-(trifluoromethyl)-1H-pyrazol-1-yl)cyclohexanecarboxylic acid] | 2.24 nM
